The source made the active and inactive calls. No cut-off for these calls is given here.
Key:
[1] = target: T1, 15-hydroxyprostaglandin dehydrogenase [NAD(+)] (Homo sapiens) (UniProt P15428); assay: Inhibition of 15-PGDH in human A549 cells assessed as increase in PGE2 level after 12 hrs by immunoassay; type: cell-based
T1 sequence (whole entry): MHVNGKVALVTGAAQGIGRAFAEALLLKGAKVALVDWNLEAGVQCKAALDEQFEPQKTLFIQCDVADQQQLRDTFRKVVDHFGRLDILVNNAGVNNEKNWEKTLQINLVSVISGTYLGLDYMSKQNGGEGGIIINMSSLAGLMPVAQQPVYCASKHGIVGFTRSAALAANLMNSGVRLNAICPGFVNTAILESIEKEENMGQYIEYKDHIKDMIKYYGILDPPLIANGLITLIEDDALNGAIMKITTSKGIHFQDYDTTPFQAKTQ

[2] = system: HaCaT; assay: In vitro wound healing effect on human HaCaT cells assessed as wound healing at 5 uM after 48 hrs in presence of 15-PGDH; type: functional, cell-based
[3] = system: HS27; assay: Induction of C-MYB expression in human HS27 cells at 5 uM by qRT-PCR analysis; type: functional, cell-based
[4] = system: HaCaT; assay: In vitro wound healing effect on human HaCaT cells assessed as improvement wound healing at 5 uM after 48 hrs; type: functional, cell-based
[5] = system: HS27; assay: Induction of GATA2 expression in human HS27 cells at 5 uM by qRT-PCR analysis; type: functional, cell-based
[6] = target: T1, 15-hydroxyprostaglandin dehydrogenase [NAD(+)] (Homo sapiens); assay: Inhibition of 15-PGDH in human A549 cells assessed as increase in PGE2 level at 5 uM after 12 hrs by immunoassay relative to control; type: cell-based
[7] = system: HS27; assay: Induction of SCL expression in human HS27 cells at 5 uM by qRT-PCR analysis; type: functional, cell-based
[8] = system: HS27; assay: In vitro wound healing effect on human HS27 cells assessed as wound healing at 5 uM after 48 hrs; type: functional, cell-based
[9] = system: HaCaT; assay: Induction of SCL expression in human HaCaT cells at 5 uM by qRT-PCR analysis relative to control; type: functional
[10] = target: T2, 15-hydroxyprostaglandin dehydrogenase [NAD(+)] (Homo sapiens, UniProt P15428); assay: Inhibition of 15-PGDH (unknown origin) by fluorescence spectrophotometry
T2 sequence (P15428 whole entry): T1 sequence (whole entry)

[11] = system: HS27; assay: Induction of RUNX1 expression in human HS27 cells at 5 uM by qRT-PCR analysis; type: functional, cell-based
[12] = system: HS27; assay: Induction of KDR expression in human HS27 cells at 5 uM by qRT-PCR analysis; type: functional, cell-based
[13] = system: HS27; assay: Induction of LMO2 expression in human HS27 cells at 5 uM by qRT-PCR analysis; type: functional, cell-based

| SMILES | Activity [1] | inhibition [2] | Activity [3] | Activity [4] | Activity [5] | Activity [6] | fold change (FC) [6] | Activity [7] | inhibition [8] | fold change (FC) [9] | IC50 [10] [nM] | Activity [11] | Activity [12] | Activity [13] | Activity [9] |
| --- | --- | --- | --- | --- | --- | --- | --- | --- | --- | --- | --- | --- | --- | --- | --- |
| O=C1NC(=O)/C(=C/c2ccc(OCCc3ccccc3)c(Br)c2)S1 | Dose-dependent effect | inactive | inactive | Active | inactive | 451 pg/mL | 7 | inactive | inactive | 2 | 4 | inactive | inactive | inactive | – |
| O=C1NC(=O)/C(=C/c2ccc(OCCCc3ccccc3)c(Br)c2)S1 | – | – | – | – | – | Active | – | – | – | – | – | – | – | – | – |
| COc1ccc2c(c1)c(CC(=O)O)c(C)n2C(=O)c1ccc(Cl)cc1 | – | – | – | – | – | – | – | – | – | – | – | – | – | – | inactive |
